Columns and labels:
[1] = system: Carrageenin edema in rat's paw; experiment: Carrageenin Edema Test in Rat's Paw (anti-inflammatory activity, Table 1); assay type: in vivo; details: 100 mg/kg oral, hydrochloride, rat
Description: An anti-inflammatory activity was measured by orally administering 100 mg/kg of a hydrochloride of the indazole derivative of this invention as set forth in Table 1 to an animal in accordance with the standard method of Carrageenin Edema Test in Rat's Paw described in C. A. Winter et al., Proc. Soc. Exp. Biol. Med., 111, 544 (1962).

in vivo = details: mouse, ip, intraperitoneal, hydrochloride, male ddy mice

CCN(CC)CCCn1nc(NCCCN2CCCCC2)c2cc(Cl)ccc21 [(96), 1-(3-Diethylaminopropyl)-3-(3-piperidinopropylamino)-5-chloroindazole]
inhibition in vivo at 100 mg/kg [1]: 29% | LD50 (in vivo): 243 mg/kg

CCN(CC)CCCn1nc(NCCCCCCN2CCCCC2)c2cc(Cl)ccc21 [(97), 1-(3-Diethylaminopropyl)-3-(6-piperidinohexylamino)-5-chloroindazole]
inhibition in vivo at 100 mg/kg [1]: 22% | LD50 (in vivo): 229 mg/kg

CCCCN(CCCC)CCCNc1nn(CCCN(CC)CC)c2ccc(Cl)cc12 [(98), 1-(3-Diethylaminopropyl)-3-(3-di-n-butylaminopropylamino)-5-chloroindazole]
inhibition in vivo at 100 mg/kg [1]: 32% | LD50 (in vivo): 286 mg/kg

CCN(CC)CCCn1nc(NCCC(C)N2CCCCC2)c2cc(Cl)ccc21 (centres unmarked) [(99), 1-(3-Diethylaminopropyl)-3-(3-piperidinobutylamino)-5-chloroindazole]
inhibition in vivo at 100 mg/kg [1]: 28% | LD50 (in vivo): 295 mg/kg

CCN(CC)CCCNc1nn(CCCN2CCCCC2)c2ccc(Cl)cc12 [(100), 1-(3-Piperidinopropyl)-3-(3-diethylaminopropylamino)-5-chloroindazole]
inhibition in vivo at 100 mg/kg [1]: 30% | LD50 (in vivo): 281 mg/kg

Clc1ccc2c(c1)c(NCCCN1CCCCC1)nn2CCCN1CCCCC1 [(101), 1-(3-Piperidinopropyl)-3-(3-piperidinopropylamino)-5-chloroindazole]
inhibition in vivo at 100 mg/kg [1]: 29% | LD50 (in vivo): 211 mg/kg

Clc1ccc2c(c1)c(NCCCCCCN1CCCCC1)nn2CCCN1CCCCC1 [(102), 1-(3-Piperidinopropyl)-3-(6-piperidinohexylamino)-5-chloroindazole]
inhibition in vivo at 100 mg/kg [1]: 22% | LD50 (in vivo): 255 mg/kg

CC(CCNc1nn(CCCN2CCCCC2)c2ccc(Cl)cc12)N1CCCCC1 (centres unmarked) [(103), 1-(3-Piperidinopropyl)-3-(3-piperidinobutylamino)-5-chloroindazole]
inhibition in vivo at 100 mg/kg [1]: 29% | LD50 (in vivo): 261 mg/kg

CCN(CC)CCCNc1nn(CCC(C)N2CCCCC2)c2ccc(Cl)cc12 (centres unmarked) [(104), 1-(3-Piperidinobutyl)-3-(3-diethylaminopropylamino)-5-chloroindazole]
inhibition in vivo at 100 mg/kg [1]: 30% | LD50 (in vivo): 277 mg/kg

CC(CCn1nc(NCCCN2CCCCC2)c2cc(Cl)ccc21)N1CCCCC1 (centres unmarked) [(105), 1-(3-Piperidinobutyl)-3-(3-piperidinopropylamino)-5-chloroindazole]
inhibition in vivo at 100 mg/kg [1]: 29% | LD50 (in vivo): 231 mg/kg

CC(C)CC(CCNc1nn(CCC(C)N2CCCCC2)c2ccc(Cl)cc12)N1CCCCC1 (centres unmarked) [(106), 1-(3-Piperidinobutyl)-3-(3-piperidino-5-methylhexylamino)-5-chloroindazole]
inhibition in vivo at 100 mg/kg [1]: 22% | LD50 (in vivo): 228 mg/kg

CC(CCNc1nn(CCC(C)N2CCCCC2)c2ccc(Cl)cc12)N(C)C (centres unmarked) [(107), 1-(3-Piperidinobutyl)-3-(3-dimethylaminobutylamino)-5-chloroindazole]
inhibition in vivo at 100 mg/kg [1]: 22% | LD50 (in vivo): 231 mg/kg

CCN(CC)CCCNc1nn(CCC(C)N(C)C)c2ccc(Cl)cc12 (centres unmarked) [(108), 1-(3-Dimethylaminobutyl)-3-(3-diethylaminopropylamino)-5-chloroindazole]
inhibition in vivo at 100 mg/kg [1]: 30% | LD50 (in vivo): 118 mg/kg

CC(CCn1nc(NCCCN2CCCCC2)c2cc(Cl)ccc21)N(C)C (centres unmarked) [(109), 1-(3-Dimethylaminobutyl)-3-(3-piperidinopropylamino)-5-chloroindazole]
inhibition in vivo at 100 mg/kg [1]: 29% | LD50 (in vivo): 387 mg/kg

CC(CCn1nc(NCCC(C)N2CCCCC2)c2cc(Cl)ccc21)N(C)C (centres unmarked) [(110), 1-(3-Dimethylaminobutyl)-3-(3-piperidinobutylamino)-5-chloroindazole]
inhibition in vivo at 100 mg/kg [1]: 28% | LD50 (in vivo): 293 mg/kg

CCN(CC)C(CCNc1nn(CCC(C)N(C)C)c2ccc(Cl)cc12)CC(C)C (centres unmarked) [(111), 1-(3-Dimethylaminobutyl)-3-(3-diethylamino-5-methylhexylamino)-5-chloroindazole]
inhibition in vivo at 100 mg/kg [1]: 22% | LD50 (in vivo): 314 mg/kg

Clc1ccc2c(c1)c(NCCCN1CCCCCC1)nn2CCCN1CCCC1 [(112), 1-(3-Pyrrolidinopropyl)-3-(3-homopiperidinopropylamino)-5-chloroindazole]
inhibition in vivo at 100 mg/kg [1]: 29% | LD50 (in vivo): 325 mg/kg

CC1CCCCN1CCCNc1nn(CCCN2CCCC2)c2ccc(Cl)cc12 (centres unmarked) [(113), 1-(3-Pyrrolidinopropyl)-3-[3-(2-methylpiperidino)propylamino]-5-chloroindazole]
inhibition in vivo at 100 mg/kg [1]: 31% | LD50 (in vivo): 221 mg/kg

CN1CCN(CCCNc2nn(CCCN3CCCC3)c3ccc(Cl)cc23)CC1 [(114), 1-(3-Pyrrolidinopropyl)-3-[3-(4-methylpiperazino)propylamino]-5-chloroindazole]
inhibition in vivo at 100 mg/kg [1]: 30% | LD50 (in vivo): 299 mg/kg

CCN(CC)CCCNc1nn(CCCN2CCOCC2)c2ccc(Cl)cc12 [(115), 1-(3-Morpholinopropyl)-3-(3-diethylaminopropylamino)-5-chloroindazole]
inhibition in vivo at 100 mg/kg [1]: 31% | LD50 (in vivo): 301 mg/kg

CC1CCCC(C)N1CCCNc1nn(CCCN2CCOCC2)c2ccc(Cl)cc12 (centres unmarked) [(116), 1-(3-Morpholinopropyl)-3-[3-(2,6-dimethylpiperidino)propylamino]-5-chloroindazole]
inhibition in vivo at 100 mg/kg [1]: 33% | LD50 (in vivo): 311 mg/kg

Clc1ccc2c(c1)c(NCCCN1CCC(Cl)CC1)nn2CCCN1CCOCC1 [(117), 1-(3-Morpholinopropyl)-3-[3-(4-chloropiperidino)propylamino]-5-chloroindazole]
inhibition in vivo at 100 mg/kg [1]: 30% | LD50 (in vivo): 291 mg/kg

OC1CCN(CCCNc2nn(CCCN3CCOCC3)c3ccc(Cl)cc23)CC1 [(118), 1-(3-Morpholinopropyl)-3-[3-(4-hydroxypiperidino)propylamino]-5-chloroindazole]
inhibition in vivo at 100 mg/kg [1]: 31% | LD50 (in vivo): 287 mg/kg

CCN(CC)CCCNc1nn(CCCN(CC)CC)c2cccc(O)c12 [(119), 1-(3-Diethylaminopropyl)-3-(3-diethylaminopropylamino)-4-hydroxyindazole]
inhibition in vivo at 100 mg/kg [1]: 29% | LD50 (in vivo): 271 mg/kg

CCN(CC)CCCNc1nn(CCCN(CC)CC)c2ccc(O)cc12 [(120), 1-(3-Diethylaminopropyl)-3-(3-diethylaminopropylamino)-5-hydroxyindazole]
inhibition in vivo at 100 mg/kg [1]: 28% | LD50 (in vivo): 269 mg/kg

CCN(CC)CCCNc1nn(CCCN(CC)CC)c2cc(O)ccc12 [(121), 1-(3-Diethylaminopropyl)-3-(3-diethylaminopropylamino)-6-hydroxyindazole]
inhibition in vivo at 100 mg/kg [1]: 21% | LD50 (in vivo): 251 mg/kg

CCN(CC)CCCNc1nn(CCCN(CC)CC)c2c(O)cccc12 [(122), 1-(3-Diethylaminopropyl)-3-(3-diethylaminopropylamino)-7-hydroxyindazole]
inhibition in vivo at 100 mg/kg [1]: 31% | LD50 (in vivo): 245 mg/kg

CCN(CC)CCCNc1nn(CCCN(CC)CC)c2ccc(I)cc12 [(123), 1-(3-Diethylaminopropyl)-3-(3-diethylaminopropylamino)-5-iodoindazole]
inhibition in vivo at 100 mg/kg [1]: 27% | LD50 (in vivo): 291 mg/kg

CCN(CC)CCCNc1nn(CCCN(CC)CC)c2c(I)cccc12 [(124), 1-(3-Diethylaminopropyl)-3-(3-diethylaminopropylamino)-7-iodoindazole]
inhibition in vivo at 100 mg/kg [1]: 29% | LD50 (in vivo): 313 mg/kg

CCN(CC)CCCNc1nn(CCCN(CC)CC)c2c(N)cc(N)cc12 [(125), 1-(3-Diethylaminopropyl)-3-(3-diethylaminopropylamino)-5,7-diaminoindazole]
inhibition in vivo at 100 mg/kg [1]: 28% | LD50 (in vivo): 320 mg/kg

CCN(CC)CCCn1nc(NCCCCCCN2CCCCC2)c2cc(O)ccc21 [(127), 1-(3-Diethylaminopropyl)-3-(6-piperidinohexylamino)-5-hydroxyindazole]
inhibition in vivo at 100 mg/kg [1]: 21% | LD50 (in vivo): 198 mg/kg

CCCCN(CCCC)CCCNc1nn(CCCN(CC)CC)c2ccc(O)cc12 [(128), 1-(3-Diethylaminopropyl)-3-(3-di-n-butylaminopropylamino)-5-hydroxyindazole]
inhibition in vivo at 100 mg/kg [1]: 31% | LD50 (in vivo): 170 mg/kg

CCN(CC)CCCn1nc(NCCC(C)N2CCCCC2)c2cc(O)ccc21 (centres unmarked) [(129), 1-(3-Diethylaminopropyl)-3-(3-piperidinobutylamino)-5-hydroxyindazole]
inhibition in vivo at 100 mg/kg [1]: 27% | LD50 (in vivo): 240 mg/kg

CCN(CC)CCCNc1nn(CCCN2CCCCC2)c2ccc(O)cc12 [(130), 1-(3-Piperidinopropyl)-3-(3-diethylaminopropylamino)-5-hydroxyindazole]
inhibition in vivo at 100 mg/kg [1]: 29% | LD50 (in vivo): 211 mg/kg

Oc1ccc2c(c1)c(NCCCN1CCCCC1)nn2CCCN1CCCCC1 [(131), 1-(3-Piperidinopropyl)-3-(3-piperidinopropylamino)-5-hydroxyindazole]
inhibition in vivo at 100 mg/kg [1]: 28% | LD50 (in vivo): 298 mg/kg

Oc1ccc2c(c1)c(NCCCCCCN1CCCCC1)nn2CCCN1CCCCC1 [(132), 1-(3-Piperidinopropyl)-3-(6-piperidinohexylamino)-5-hydroxyindazole]
inhibition in vivo at 100 mg/kg [1]: 21% | LD50 (in vivo): 310 mg/kg

CC(CCNc1nn(CCCN2CCCCC2)c2ccc(O)cc12)N1CCCCC1 (centres unmarked) [(133), 1-(3-Piperidinopropyl)-3-(3-piperidinobutylamino)-5-hydroxyindazole]
inhibition in vivo at 100 mg/kg [1]: 28% | LD50 (in vivo): 330 mg/kg

CCN(CC)CCCNc1nn(CCC(C)N2CCCCC2)c2ccc(O)cc12 (centres unmarked) [(134), 1-(3-Piperidinobutyl)-3-(3-diethylaminopropylamino)-5-hydroxyindazole]
inhibition in vivo at 100 mg/kg [1]: 29% | LD50 (in vivo): 349 mg/kg

CC(CCn1nc(NCCCN2CCCCC2)c2cc(O)ccc21)N1CCCCC1 (centres unmarked) [(135), 1-(3-Piperidinobutyl)-3-(3-piperidinopropylamino)-5-hydroxyindazole]
inhibition in vivo at 100 mg/kg [1]: 28% | LD50 (in vivo): 298 mg/kg

CC(C)CC(CCNc1nn(CCC(C)N2CCCCC2)c2ccc(O)cc12)N1CCCCC1 (centres unmarked) [(136), 1-(3-Piperidinobutyl)-3-(3-piperidino-5-methylhexylamino)-5-hydroxyindazole]
inhibition in vivo at 100 mg/kg [1]: 21% | LD50 (in vivo): 241 mg/kg
